According to patent US12383572B2, “Administration of an anti-activin-a compound to a subject” (AMGEN INC., priority 2013, dated 2025):

Columns and labels:
[1] = system: TOV-21G xenografts; test: TOV-21G xenograft, sActRIIB and 5-FU chemotherapy combination; type: in vivo, human; conditions: nude mice; sActRIIB 10 mg/kg SC 1x/week, 5-FU 50 mg/kg IP 3 cycles, alone or together
Experimental: TOV-21G xenograft. 5×10^6 TOV-21G ovarian cancer cells were implanted subcutaneously into individual female athymic nu/nu mice (Harlan). Treatment was initiated at day 12 after tumor implantation, when the average tumor volume reached approximately 150 mm^3. The mice received PBS, sActRIIB (30 mg/kg, SC, 1×/week) or activin-A antibody (30 mg/kg, SC, 2×/week). In a separate chemotherapy combination experiment, the mice were treated with PBS, sActRIIB (10 mg/kg, SC, 1×/week), 5-FU (50 mg/kg, IP, 3 cycles, 4 daily injections per cycle) or sActRIIB and 5-FU combination at the same doses above. For all xenograft experiments, the tumor sizes were measured longitudinally by using an electronic caliper. Immediately prior to the 1st dose, the tumor-bearing mice were randomized to ensure even distribution in tumor sizes across different groups. Tumor volumes (mm^3) were calculated as tumor length (mm)×tumor width (mm)×tumor height (mm). Tumor weights were determined by necropsy.

[2] = sActRIIB and doxorubicin in TOV-21G tumor-bearing nude mice: body weight and muscle mass; type: in vivo, mouse
Experimental: (§1) The objective of the present study was to examine the effect of pharmacological administration of sActRIIB, doxorubicin (dox), and sActRIIB plus doxorubicin, respectively, on body weight, tumor growth and muscle mass in nude mice implanted with TOV-21G ovarian xenograft tumors. Eight-week-old female Athymic nude mice were SC injected with 0.2 mL of 5×10^6 TOV-21G cells into the left site of the lower flank of the mice. After 10 days of tumor implantation, the mice were divided into 4 groups by body weight and tumor size and then treated with vehicle, sActRIIB, doxorubicin or the combination of sActRIIB and doxorubicin. In addition, a group of non-tumor bearing mice was used as normal control and received PBS.
(§2) Mice were weighed weekly. Body weight data were recorded longitudinally. Tumor size was measured longitudinally by using an electronic caliper. The following formula was used to calculate actual tumor volume (Tomayko M and Reynolds C, 1989): (Volume of a rectangular solid tumor: Tumor volume (mm^3)=length (mm)×width (mm)×height (mm) of tumor). At the end of the study, mice in all groups were subjected to terminal necropsy and lean carcass weight (excluding skin, adipose tissue, internal organs, and head) was determined by using standard anatomical dissection procedures. […] All results were expressed as the mean±SEM (standard error of the mean). […]

[3] = system: TOV-21G ovarian xenograft tumors; test: sActRIIB and doxorubicin in TOV-21G tumor-bearing nude mice: tumor size and weight; type: in vivo, human; conditions: sActRIIB 10 mg/kg SC 1x/week, DOX 2 mg/kg IP 1x/week; 4-week study
Experimental: as §1, §2

[4] = Activin-A antibody and doxorubicin in TOV-21G tumor-bearing nude mice: body weight and muscle mass; type: in vivo, mouse
From the text: (§3) The objective of this study was to examine the effects of pharmacological administration of activin-A antibody, doxorubicin, and activin-A antibody plus doxorubicin, on body weight, tumor growth and muscle mass in nude mice implanted with TOV-21G ovarian xenograft tumors. The activin-A antibody used was the same as described in the Materials section above. Eight-week-old female Athymic nude mice were each injected with 2.2×10^6 TOV-21G cells subcutaneously (SC) into the left site of the lower flank of the mice. On day 12 post tumor implantation, the mice were divided into 4 groups by body weight and tumor size and then treated with vehicle, activin-A antibody, doxorubicin, or the combination of activin-A antibody and doxorubicin. In addition, a group of non-tumor bearing mice was used as normal control and received PBS.
(§4) Mice were weighed weekly. Body weight data were recorded longitudinally. Tumor size was measured longitudinally by using an electronic caliper (Fred V. Fowler Company, Inc.). […] At the end of the study, mice in all groups were subjected to terminal necropsy and lean carcass weight (excluding skin, adipose tissue, internal organs, and head) was determined by using standard anatomical dissection procedures. […] All results were expressed as the mean±SEM. […]

[5] = system: TOV-21G ovarian xenograft tumors; test: Activin-A antibody and doxorubicin in TOV-21G tumor-bearing nude mice: tumor size and weight; type: in vivo, human; conditions: activin-A antibody 20 mg/kg SC 1x/week, DOX 4 mg/kg IP 1x/week; vs vehicle-treated
From the text: as §3, §4

Compound: O=c1[nH]cc(F)c(=O)[nH]1 [Antibody 5-FU, 5-Fluorouracil, reference compound]
- rate of tumor growth [1]: decreased the rate of tumor growth significantly

Compound: COc1cccc2c1C(=O)c1c(O)c3c(c(O)c1C2=O)C[C@@](O)(C(=O)CO)C[C@@H]3O[C@H]1C[C@H](N)[C@H](O)[C@H](C)O1 [Doxorubicin, doxorubicin, reference compound]
- body weight ([2]; TOV-21G tumor-bearing nude mice, sActRIIB 10 mg/kg SC 1x/week, DOX 2 mg/kg IP 1x/week): further decline (non-statistically significant) in body weight
- lean carcass weight and calf muscle mass ([2]; TOV-21G-implanted nude mice, necropsy at end of 4-week experiment): no effect on the loss of lean carcass weight and calf muscle mass
- tumor size and tumor weight vs vehicle-treated TOV-21G group [3]: significantly reduced tumor size and tumor weight
- body weight ([4]; TOV-21G tumor-bearing nude mice, activin-A antibody 20 mg/kg SC 1x/week, DOX 4 mg/kg IP 1x/week): further decline (non-statistically significant) in body weight
- lean carcass weight and calf muscle mass ([4]; TOV-21G-implanted nude mice, necropsy at end of 5-week experiment): no effect on the loss of lean carcass weight and calf muscle mass
- tumor size and tumor weight (day 47) / tumor growth [5]: capable of inhibiting TOV-21G tumor growth
